Experimental data from patent US10253052B2, “HBED-bisphosphonates, radiometal conjugates and their use as theranostic agents” (Five Eleven Pharma Inc., priority 2015, dated 2019).
“And” between values parts separate entries of the source, which are not always exact repeats. Equal entries are not always repeated. “Also recorded” adds a separate entry of the source.

How the values were obtained:
[1] = In vivo biodistribution in mice; design: species or system normal CD-1 male mice; conditions: for bone to blood ratio / bone to muscle ratio / Biodistribution: Blood / Biodistribution: Bone / Biodistribution: Brain / Biodistribution: Heart / Biodistribution: Kidney / Biodistribution: Liver / Biodistribution: Lung / Biodistribution: Muscle / Biodistribution: Pancreas / Biodistribution: Skin / Biodistribution: Spleen: iv
Procedure: Biodistribution experiments were performed by intravenously administering ^68Ga labeled 1a-h, 2, 3, BPAMD, and [^18F]NaF into normal, healthy male CD-1 mice (25-30 g). The injection activity was 20-30 μCi/animal. […] Organs of interest were harvested, weighed, and counts of radioactivity were measured by a gamma counter. The biodistribution of each sample was calculated as a percentage of the injected dose per gram of wet tissue weight (% ID/g). Tibia and femur bones were harvested and counted as bone samples.

[2] = In vitro binding to hydroxyapatite; conditions: 20 mg hydroxyapatite in saline, 10 min at room temperature
Procedure: Hydroxyapatite (20 mg, Sigma-Aldrich, reagent grade powder) was incubated in isotonic saline (1 mL) for 24 h. Subsequently, either ^68Ga labeled 1a-h, 2, 3, BPAMD, or [^18F]NaF (1 μCi) was added to the hydroxyapatite suspension. After vortexing for 10 seconds, the suspension was incubated for 10 min at room temperature. The samples were then centrifuged at 10,000 rpm for 3 min and the supernatant was removed. The hydroxyapatite fraction was washed twice with saline (1 mL). Radioactivity in the combined supernatants and the hydroxyapatite fraction was measured using a gamma counter. The proportion of the ^68Ga complex binding to hydroxyapatite was determined as percent of ^68Ga absorbed to hydroxyapatite.

Compound: O=C([O-])CN(CCN(CC(=O)[O-])Cc1cc(CCC(=O)NC(P(=O)(O)O)P(=O)(O)O)ccc1[O-])Cc1cc(CCC(=O)NC(P(=O)(O)O)P(=O)(O)O)ccc1[O-].[68Ga+3] [[^68Ga]2]
- bone to blood ratio ([1]; 2 min): 1.1
- bone to muscle ratio ([1]; 2 min): 4.9
- Biodistribution: Blood ([1]; 2 min post injection): 9.97 ± 1.40 % dose/g
- Biodistribution: Bone ([1]; 2 min post injection): 11.0 ± 1.95 % dose/g
- Biodistribution: Brain ([1]; 2 min post injection): 0.30 ± 0.02 % dose/g
- Biodistribution: Heart ([1]; 2 min post injection): 4.13 ± 0.30 % dose/g
- Biodistribution: Kidney ([1]; 2 min post injection): 19.4 ± 1.38 % dose/g
- Biodistribution: Liver ([1]; 2 min post injection): 2.67 ± 0.12 % dose/g
- Biodistribution: Lung ([1]; 2 min post injection): 5.47 ± 0.57 % dose/g
- Biodistribution: Muscle ([1]; 2 min post injection): 2.26 ± 0.34 % dose/g
- Biodistribution: Pancreas ([1]; 2 min post injection): 2.05 ± 0.23 % dose/g
- Biodistribution: Skin ([1]; 2 min post injection): 3.19 ± 0.45 % dose/g
- Biodistribution: Spleen ([1]; 2 min post injection): 2.08 ± 0.22 % dose/g
- bone to blood ratio ([1]; 30 min): 26
- bone to muscle ratio ([1]; 30 min): 58
- Biodistribution: Blood ([1]; 30 min (0.5 hr) post injection): 0.73 ± 0.28 % dose/g
- Biodistribution: Bone ([1]; 30 min (0.5 hr) post injection): 18.8 ± 2.82 % dose/g
- Biodistribution: Brain ([1]; 30 min (0.5 hr) post injection): 0.03 ± 0.00 % dose/g
- Biodistribution: Heart ([1]; 30 min (0.5 hr) post injection): 0.99 ± 0.13 % dose/g
- Biodistribution: Kidney ([1]; 30 min (0.5 hr) post injection): 2.98 ± 1.13 % dose/g
- Biodistribution: Liver ([1]; 30 min (0.5 hr) post injection): 0.44 ± 0.09 % dose/g
- Biodistribution: Lung ([1]; 30 min (0.5 hr) post injection): 0.96 ± 0.23 % dose/g
- Biodistribution: Muscle ([1]; 30 min (0.5 hr) post injection): 0.32 ± 0.05 % dose/g
- Biodistribution: Pancreas ([1]; 30 min (0.5 hr) post injection): 0.36 ± 0.17 % dose/g
- Biodistribution: Skin ([1]; 30 min (0.5 hr) post injection): 0.71 ± 0.13 % dose/g
- Biodistribution: Spleen ([1]; 30 min (0.5 hr) post injection): 0.48 ± 0.09 % dose/g
- bone to blood ratio ([1]; 60 min): 42
- bone to muscle ratio ([1]; 60 min): 82.7 and 83
- Biodistribution: Blood ([1]; 60 min (1 hr) post injection): 0.47 ± 0.08 % dose/g
- Biodistribution: Bone ([1]; 60 min (1 hr) post injection): 19.7±4.2 % dose/g and 19.7 ± 4.17 % dose/g
- Biodistribution: Brain ([1]; 60 min (1 hr) post injection): 0.02 ± 0.00 % dose/g
- Biodistribution: Heart ([1]; 60 min (1 hr) post injection): 0.57 ± 0.13 % dose/g
- Biodistribution: Kidney ([1]; 60 min (1 hr) post injection): 2.61 ± 0.95 % dose/g
- Biodistribution: Liver ([1]; 60 min (1 hr) post injection): 0.43 ± 0.03 % dose/g
- Biodistribution: Lung ([1]; 60 min (1 hr) post injection): 0.58 ± 0.09 % dose/g
- Biodistribution: Muscle ([1]; 60 min (1 hr) post injection): 0.24 ± 0.04 % dose/g
- Biodistribution: Pancreas ([1]; 60 min (1 hr) post injection): 0.27 ± 0.01 % dose/g
- Biodistribution: Skin ([1]; 60 min (1 hr) post injection): 0.38 ± 0.05 % dose/g
- Biodistribution: Spleen ([1]; 60 min (1 hr) post injection): 0.43 ± 0.05 % dose/g
- bone to blood ratio ([1]; 120 min): 77
- bone to muscle ratio ([1]; 120 min): 103
- Biodistribution: Blood ([1]; 120 min post injection): 0.31 ± 0.09 % dose/g
- Biodistribution: Bone ([1]; 120 min post injection): 23.9 ± 5.54 % dose/g
- Biodistribution: Brain ([1]; 120 min post injection): 0.02 ± 0.00 % dose/g
- Biodistribution: Heart ([1]; 120 min post injection): 0.42 ± 0.08 % dose/g
- Biodistribution: Kidney ([1]; 120 min post injection): 2.86 ± 1.16 % dose/g
- Biodistribution: Liver ([1]; 120 min post injection): 0.40 ± 0.03 % dose/g
- Biodistribution: Lung ([1]; 120 min post injection): 0.40 ± 0.05 % dose/g
- Biodistribution: Muscle ([1]; 120 min post injection): 0.23 ± 0.05 % dose/g
- Biodistribution: Pancreas ([1]; 120 min post injection): 0.31 ± 0.11 % dose/g
- Biodistribution: Skin ([1]; 120 min post injection): 0.33 ± 0.06 % dose/g
- Biodistribution: Spleen ([1]; 120 min post injection): 0.43 ± 0.24 % dose/g
- Biodistribution result in words (organ uptake, retention, excretion) ([1]; normal mice after iv injection): excellent bone uptake and fast kidney excretion; also recorded: excellent bone uptake and retention
- Hydroxyapatite Binding (%) [2]: 90.8 ± 1.5%
